Results: ChEMBL document CHEMBL5291721, “A preclinical secondary pharmacology resource illuminates target-adverse drug reaction associations of marketed drugs” (Nat Commun, 2023)

Assays:
Adenosine receptor A3 = target: T1, Adenosine receptor A3 (Homo sapiens, UniProt P0DMS8)
T1 sequence (P0DMS8 whole entry): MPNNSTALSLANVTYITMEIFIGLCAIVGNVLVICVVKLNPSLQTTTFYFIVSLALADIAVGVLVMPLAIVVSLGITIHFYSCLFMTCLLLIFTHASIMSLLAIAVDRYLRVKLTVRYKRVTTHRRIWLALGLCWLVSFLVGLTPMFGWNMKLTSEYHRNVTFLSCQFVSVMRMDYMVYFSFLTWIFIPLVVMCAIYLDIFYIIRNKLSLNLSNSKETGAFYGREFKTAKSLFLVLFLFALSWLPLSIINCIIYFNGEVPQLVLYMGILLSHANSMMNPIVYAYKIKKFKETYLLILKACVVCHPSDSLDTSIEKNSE

[1] = target: T2, Alpha-1A adrenergic receptor (Homo sapiens, UniProt P35348)
T2 sequence (P35348 whole entry): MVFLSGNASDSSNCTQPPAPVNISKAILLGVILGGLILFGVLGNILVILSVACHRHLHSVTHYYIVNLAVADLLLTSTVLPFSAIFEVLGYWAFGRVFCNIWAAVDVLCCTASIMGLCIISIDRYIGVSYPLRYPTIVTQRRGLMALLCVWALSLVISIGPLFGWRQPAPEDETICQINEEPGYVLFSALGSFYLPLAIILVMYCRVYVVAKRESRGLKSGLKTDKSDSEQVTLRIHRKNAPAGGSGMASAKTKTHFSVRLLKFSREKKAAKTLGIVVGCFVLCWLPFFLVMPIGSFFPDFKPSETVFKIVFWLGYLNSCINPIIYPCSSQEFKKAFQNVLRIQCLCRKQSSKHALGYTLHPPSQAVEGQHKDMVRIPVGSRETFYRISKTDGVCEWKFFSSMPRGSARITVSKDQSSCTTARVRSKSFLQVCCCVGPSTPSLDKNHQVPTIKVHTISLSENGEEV

[2] = target: Beta-1 adrenergic receptor (Homo sapiens, UniProt P08588); format: functional
[3] = target: Beta-2 adrenergic receptor (Homo sapiens, UniProt P07550)
Vasopressin V1a receptor = Vasopressin V1a receptor (Homo sapiens, UniProt P37288)
Vasopressin V2 receptor = Vasopressin V2 receptor (Homo sapiens, UniProt P30518)
[4] = target: T3, Cholecystokinin receptor type A (Homo sapiens, UniProt P32238)
T3 sequence (P32238 whole entry): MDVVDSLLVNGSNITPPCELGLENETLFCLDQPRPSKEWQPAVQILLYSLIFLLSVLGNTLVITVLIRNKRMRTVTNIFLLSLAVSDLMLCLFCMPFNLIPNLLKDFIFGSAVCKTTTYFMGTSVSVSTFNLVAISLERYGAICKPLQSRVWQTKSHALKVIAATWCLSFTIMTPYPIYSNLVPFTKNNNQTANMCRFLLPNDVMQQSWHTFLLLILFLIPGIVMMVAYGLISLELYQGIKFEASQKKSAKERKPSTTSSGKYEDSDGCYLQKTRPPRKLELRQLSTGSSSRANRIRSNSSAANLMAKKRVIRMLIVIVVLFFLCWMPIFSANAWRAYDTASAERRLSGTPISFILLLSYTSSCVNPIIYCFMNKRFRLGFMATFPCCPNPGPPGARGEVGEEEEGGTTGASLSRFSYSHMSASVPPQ

Cannabinoid receptor 1 = Cannabinoid receptor 1 (Homo sapiens, UniProt P21554)
Endothelin-1 receptor = target: T4, Endothelin-1 receptor (Homo sapiens, UniProt P25101)
T4 sequence (P25101 whole entry): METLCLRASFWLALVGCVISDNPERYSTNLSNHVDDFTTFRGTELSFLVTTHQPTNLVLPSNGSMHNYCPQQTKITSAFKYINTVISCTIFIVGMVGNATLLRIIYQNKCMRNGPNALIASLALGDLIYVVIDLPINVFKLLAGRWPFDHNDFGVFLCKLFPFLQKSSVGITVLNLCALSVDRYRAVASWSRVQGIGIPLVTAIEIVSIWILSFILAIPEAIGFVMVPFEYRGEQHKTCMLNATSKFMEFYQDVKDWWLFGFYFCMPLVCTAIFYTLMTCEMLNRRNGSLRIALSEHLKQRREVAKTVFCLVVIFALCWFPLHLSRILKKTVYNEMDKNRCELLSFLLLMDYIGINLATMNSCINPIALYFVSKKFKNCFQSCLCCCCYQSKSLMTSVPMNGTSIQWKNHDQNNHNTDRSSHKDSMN

Motilin receptor = Motilin receptor (Homo sapiens, UniProt O43193)
[5] = target: T5, Neuropeptide Y receptor type 1 (Homo sapiens, UniProt P25929)
T5 sequence (P25929 whole entry): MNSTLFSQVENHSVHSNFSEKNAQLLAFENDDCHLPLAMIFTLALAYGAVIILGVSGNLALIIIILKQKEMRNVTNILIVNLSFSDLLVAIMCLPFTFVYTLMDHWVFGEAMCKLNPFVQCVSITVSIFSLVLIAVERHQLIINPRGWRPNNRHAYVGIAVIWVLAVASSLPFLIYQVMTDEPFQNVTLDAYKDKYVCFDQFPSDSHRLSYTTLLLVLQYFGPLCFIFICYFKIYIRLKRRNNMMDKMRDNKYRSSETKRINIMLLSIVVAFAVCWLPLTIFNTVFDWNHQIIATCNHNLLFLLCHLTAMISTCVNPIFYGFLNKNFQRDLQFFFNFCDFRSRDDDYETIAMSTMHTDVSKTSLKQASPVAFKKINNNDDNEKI

[6] = target: T2, Alpha-1A adrenergic receptor; format: functional, cell-based
[7] = target: Sodium-dependent serotonin transporter (Homo sapiens, UniProt P31645)
Note: assay procedure not described here.

Vasopressin V2 receptor, sequence (P30518 whole entry): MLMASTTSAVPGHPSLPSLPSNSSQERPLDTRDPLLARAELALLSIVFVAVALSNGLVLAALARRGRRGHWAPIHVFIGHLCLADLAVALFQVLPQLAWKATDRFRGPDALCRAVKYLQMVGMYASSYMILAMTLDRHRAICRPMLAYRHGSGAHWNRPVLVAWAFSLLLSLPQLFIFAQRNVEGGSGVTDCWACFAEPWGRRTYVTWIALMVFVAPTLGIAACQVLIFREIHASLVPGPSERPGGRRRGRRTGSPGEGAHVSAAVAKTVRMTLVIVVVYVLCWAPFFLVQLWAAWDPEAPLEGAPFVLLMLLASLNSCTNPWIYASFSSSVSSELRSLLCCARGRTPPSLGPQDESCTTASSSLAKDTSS
Sodium-dependent serotonin transporter, sequence (P31645 whole entry): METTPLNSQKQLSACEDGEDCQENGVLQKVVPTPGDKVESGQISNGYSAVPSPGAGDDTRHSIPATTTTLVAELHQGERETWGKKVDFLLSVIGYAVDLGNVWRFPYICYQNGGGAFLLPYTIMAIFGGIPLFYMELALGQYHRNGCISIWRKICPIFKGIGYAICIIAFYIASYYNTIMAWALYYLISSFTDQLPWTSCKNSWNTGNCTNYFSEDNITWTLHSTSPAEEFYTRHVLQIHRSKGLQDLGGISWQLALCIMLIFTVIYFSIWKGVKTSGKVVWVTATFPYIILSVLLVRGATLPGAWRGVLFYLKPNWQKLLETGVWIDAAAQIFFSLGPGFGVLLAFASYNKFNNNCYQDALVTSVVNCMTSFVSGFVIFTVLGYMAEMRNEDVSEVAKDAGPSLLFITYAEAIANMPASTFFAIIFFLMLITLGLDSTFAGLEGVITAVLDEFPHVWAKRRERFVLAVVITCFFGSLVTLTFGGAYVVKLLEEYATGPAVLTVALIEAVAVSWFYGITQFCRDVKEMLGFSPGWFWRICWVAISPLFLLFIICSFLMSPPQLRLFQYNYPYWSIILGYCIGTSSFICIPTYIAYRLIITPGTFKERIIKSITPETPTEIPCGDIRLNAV
Motilin receptor, sequence (O43193 whole entry): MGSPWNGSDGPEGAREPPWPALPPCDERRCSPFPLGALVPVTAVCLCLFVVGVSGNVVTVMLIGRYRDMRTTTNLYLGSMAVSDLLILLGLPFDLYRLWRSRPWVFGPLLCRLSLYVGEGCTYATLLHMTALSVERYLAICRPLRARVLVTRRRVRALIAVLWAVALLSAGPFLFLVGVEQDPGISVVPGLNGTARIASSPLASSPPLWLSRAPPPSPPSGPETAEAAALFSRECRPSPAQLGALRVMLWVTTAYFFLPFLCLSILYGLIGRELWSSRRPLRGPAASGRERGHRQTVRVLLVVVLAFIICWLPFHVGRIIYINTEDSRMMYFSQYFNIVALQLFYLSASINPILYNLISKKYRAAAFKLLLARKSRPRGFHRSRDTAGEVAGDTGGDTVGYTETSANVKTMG
Beta-2 adrenergic receptor, sequence (P07550 whole entry): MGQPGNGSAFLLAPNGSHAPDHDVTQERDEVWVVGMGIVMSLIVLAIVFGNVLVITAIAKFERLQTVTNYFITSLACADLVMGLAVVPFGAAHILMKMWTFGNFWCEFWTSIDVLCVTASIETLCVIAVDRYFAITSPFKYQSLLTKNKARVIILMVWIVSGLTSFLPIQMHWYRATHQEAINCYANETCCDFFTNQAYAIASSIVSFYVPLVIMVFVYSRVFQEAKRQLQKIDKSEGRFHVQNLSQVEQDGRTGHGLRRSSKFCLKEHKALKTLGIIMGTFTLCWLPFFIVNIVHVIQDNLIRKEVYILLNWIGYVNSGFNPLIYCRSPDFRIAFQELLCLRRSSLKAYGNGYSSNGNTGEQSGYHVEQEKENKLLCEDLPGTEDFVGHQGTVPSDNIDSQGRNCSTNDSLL
Beta-1 adrenergic receptor, sequence (P08588 whole entry): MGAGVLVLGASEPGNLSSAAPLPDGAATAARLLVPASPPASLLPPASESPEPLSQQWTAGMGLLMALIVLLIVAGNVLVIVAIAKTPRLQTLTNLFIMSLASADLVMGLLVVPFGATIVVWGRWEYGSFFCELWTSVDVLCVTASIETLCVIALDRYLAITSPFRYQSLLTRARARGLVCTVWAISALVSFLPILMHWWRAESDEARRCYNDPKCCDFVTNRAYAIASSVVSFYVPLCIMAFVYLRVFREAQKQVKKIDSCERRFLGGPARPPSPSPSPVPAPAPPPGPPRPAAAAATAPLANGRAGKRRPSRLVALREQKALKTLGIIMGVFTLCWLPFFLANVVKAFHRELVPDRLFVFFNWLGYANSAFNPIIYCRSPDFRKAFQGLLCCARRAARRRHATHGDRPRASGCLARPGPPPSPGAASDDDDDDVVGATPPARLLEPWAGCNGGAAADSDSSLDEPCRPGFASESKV
Cannabinoid receptor 1, sequence (P21554 whole entry): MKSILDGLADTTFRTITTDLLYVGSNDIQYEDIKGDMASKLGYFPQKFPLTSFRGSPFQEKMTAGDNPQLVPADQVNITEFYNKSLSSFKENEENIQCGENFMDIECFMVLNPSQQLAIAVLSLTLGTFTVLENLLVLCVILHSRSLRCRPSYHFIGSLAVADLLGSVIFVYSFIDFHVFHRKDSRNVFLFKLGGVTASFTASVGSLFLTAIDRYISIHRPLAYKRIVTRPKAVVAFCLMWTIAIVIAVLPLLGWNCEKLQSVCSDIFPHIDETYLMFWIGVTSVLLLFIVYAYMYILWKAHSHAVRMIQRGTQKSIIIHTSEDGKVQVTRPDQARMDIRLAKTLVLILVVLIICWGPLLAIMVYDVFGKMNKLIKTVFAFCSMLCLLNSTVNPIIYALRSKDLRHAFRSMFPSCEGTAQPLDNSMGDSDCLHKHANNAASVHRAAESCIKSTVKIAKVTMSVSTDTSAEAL
Vasopressin V1a receptor, sequence (P37288 whole entry): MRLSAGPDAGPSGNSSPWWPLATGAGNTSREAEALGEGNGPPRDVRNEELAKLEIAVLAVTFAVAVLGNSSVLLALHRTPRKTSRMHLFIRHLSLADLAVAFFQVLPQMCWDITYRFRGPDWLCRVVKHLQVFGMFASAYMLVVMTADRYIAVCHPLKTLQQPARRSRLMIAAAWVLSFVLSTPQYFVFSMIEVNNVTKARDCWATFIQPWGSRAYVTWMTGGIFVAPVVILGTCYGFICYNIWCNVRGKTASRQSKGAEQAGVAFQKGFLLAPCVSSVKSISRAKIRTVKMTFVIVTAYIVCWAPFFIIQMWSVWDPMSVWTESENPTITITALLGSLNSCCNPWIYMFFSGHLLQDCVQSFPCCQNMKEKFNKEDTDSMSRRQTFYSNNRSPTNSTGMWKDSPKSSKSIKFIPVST

AC50 (Adenosine receptor A3) [µM] | AC50 [1] [µM] | AC50 [2] [µM] | AC50 [3] [µM] | AC50 (Vasopressin V1a receptor) [µM] | AC50 (Vasopressin V2 receptor) [µM] | AC50 [4] [µM] | AC50 (Cannabinoid receptor 1) [µM] | AC50 (Endothelin-1 receptor) [µM] | AC50 (Motilin receptor) [µM] | AC50 [5] [µM] | AC50 [7] [µM] | SMILES | AC50 [6] [µM]
7.7 | – | > 10 | 13 | 8.7 | > 30 | > 10 | – | > 10 | > 10 | 9.8 | > 10 | COc1ccc(-c2cc(=S)ss2)cc1 [ANETHOLTRITHION] | > 30
– | – | – | – | – | – | – | – | – | – | – | – | CC(C)(C)NCC(O)COc1ccccc1C#N (stereo not drawn) [BUNITROLOL] | > 30
> 30 | – | > 30 | > 30 | > 30 | > 30 | > 30 | – | > 30 | > 30 | > 30 | > 30 | C[C@]12CCC(=O)C=C1C=C[C@@H]1[C@@H]2CC[C@@]2(C)[C@H]1CC[C@@]21CCC(=O)O1 [CANRENONE] | > 30
> 10 | 11.8 | > 10 | > 10 | > 10 | > 10 | > 10 | > 10 | – | > 10 | > 10 | > 10 | CN(C)CCC(O)(c1ccccc1)c1ccccc1Cl (stereo not drawn) [CHLOPHEDIANOL] | –
13 | – | > 30 | – | > 30 | > 30 | > 30 | – | > 30 | 16 | > 30 | > 30 | C[C@]12C=CC(=O)C=C1C(Cl)=C[C@@H]1[C@@H]2[C@@H](O)C[C@@]2(C)[C@H]1CC[C@]2(O)C(=O)CO [CLOPREDNOL] | –
> 30 | – | > 30 | > 30 | > 30 | > 30 | > 30 | > 30 | > 30 | > 30 | > 30 | > 30 | C[C@]12CCC(=O)C=C1[C@@H]1C[C@@H]1[C@H]1[C@@H]3[C@@H]4C[C@@H]4[C@@]4(CCC(=O)O4)[C@@]3(C)CC[C@@H]12 [DROSPIRENONE] | > 30
> 30 | – | > 30 | > 30 | > 30 | > 30 | > 30 | – | > 30 | > 30 | > 30 | > 30 | CC(C)(Oc1ccc(Cl)cc1)C(=O)OCCOC(=O)c1cccnc1 [ETOFIBRATE] | > 30
– | – | – | – | – | – | – | – | – | – | – | – | COc1ccc(C(=O)c2ccccc2)c(O)c1 [OXYBENZONE] | > 30
> 30 | > 10 | > 10 | > 10 | > 30 | > 30 | > 30 | > 10 | > 30 | > 10 | > 30 | – | C[C@]12C=CC(=O)C=C1CC[C@@H]1[C@@H]2[C@@H](O)C[C@@]2(C)[C@H]1CC[C@]2(O)C(=O)CO [PREDNISOLONE] | > 30
> 10 | 0.0294 | > 10 | > 10 | > 10 | > 10 | > 10 | > 10 | – | > 10 | > 10 | > 10 | CCC(=O)c1ccc2c(c1)N(CC(C)N(C)C)c1ccccc1S2 (stereo not drawn) [PROPIOMAZINE] | –
> 10 | > 10 | > 10 | > 10 | > 10 | > 10 | > 10 | > 10 | – | > 10 | > 10 | > 10 | CN(C)[C@@H]1C(O)=C(C(=O)NCN2CCCC2)C(=O)[C@@]2(O)C(O)=C3C(=O)c4c(O)cccc4[C@@](C)(O)[C@H]3C[C@@H]12 [ROLITETRACYCLINE] | > 30
> 30 | – | > 30 | – | – | > 30 | > 30 | – | > 30 | > 30 | > 30 | – | CC1(C)O[C@@H]2C[C@H]3[C@@H]4CCC5=CC(=O)C=C[C@]5(C)[C@@]4(F)[C@@H](O)C[C@]3(C)[C@]2(C(=O)CO)O1 [TRIAMCINOLONE ACETONIDE] | –

SMILES | AC50 (Adenosine receptor A3) [µM] | AC50 [1] [µM] | AC50 [2] [µM] | AC50 [3] [µM] | AC50 (Vasopressin V1a receptor) [µM] | AC50 (Vasopressin V2 receptor) [µM] | AC50 [4] [µM] | AC50 (Cannabinoid receptor 1) [µM] | AC50 (Endothelin-1 receptor) [µM] | AC50 (Motilin receptor) [µM] | AC50 [5] [µM] | AC50 [7] [µM] | AC50 [6] [µM]
N=C(N)NC(=O)c1nc(Cl)c(N)nc1N [AMILORIDE] | > 30 | 2.69 | > 30 | > 30 | > 30 | > 30 | > 30 | > 30 | > 30 | > 30 | > 30 | – | > 30
COc1cccc2c1C(=O)c1c(O)c3c(c(O)c1C2=O)C[C@@](O)(C(=O)CO)C[C@@H]3O[C@H]1C[C@H](N)[C@H](O)[C@H](C)O1 [DOXORUBICIN] | > 30 | > 10 | > 30 | > 10 | > 30 | > 30 | > 30 | > 10 | > 30 | > 30 | > 30 | – | –
CCn1c(=O)c2c(nc(/C=C/c3ccc(OC)c(OC)c3)n2C)n(CC)c1=O [ISTRADEFYLLINE] | 24 | – | – | – | – | – | – | – | – | – | – | – | > 30
Cc1cn(-c2cc(NC(=O)c3ccc(C)c(Nc4nccc(-c5cnccn5)n4)c3)cc(C(F)(F)F)c2)cn1 [RADOTINIB] | 3.3 | – | > 30 | – | – | – | – | – | – | – | – | – | > 30
CNC(=O)c1cnn(-c2nc(N)c3ncn([C@@H]4O[C@H](CO)[C@@H](O)[C@H]4O)c3n2)c1 [REGADENOSON ANHYDROUS] | 3.7 | – | – | – | – | – | – | – | – | – | – | – | –
Cc1ccc(O)c([C@H](CCN(C(C)C)C(C)C)c2ccccc2)c1 [TOLTERODINE] | – | 2.74 | > 10 | – | – | – | – | > 10 | – | – | – | > 10 | > 30
Oc1cc(Cl)ccc1Oc1ccc(Cl)cc1Cl [TRICLOSAN] | 8.9 | – | > 30 | – | > 30 | > 30 | > 30 | – | > 30 | > 30 | > 30 | > 30 | > 30
